The subject of this assay is L1210 leukemia ip in BDF1 mice, survival T/C. Put plainly: NCI In Vivo Anticancer Drug Screen. Data for tumor model L1210 Leukemia (intraperitoneal) in B6D2F1 (BDF1) mice. To be noted: endpoint: mean survival time, higher = longer survival. The gist of the method: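 Each compound was tested against a transplantable tumor grown in mice. The endpoint was survival, with treated animals benchmarked against vehicle controls as a simple ratio.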

Where [1] appears, read: dose: 100.0 mg/kg/injection, schedule: Q01DX009 (ip), vehicle: saline with Tween-80.
The mark [2] stands for this setting: dose: 200.0 mg/kg/injection, schedule: Q01DX009 (ip), vehicle: saline with Tween-80.
The mark [3] stands for this setting: dose: 12.5 mg/kg/injection, schedule: Q01DX009 (ip), vehicle: saline.
Setting [4] is: dose: 25.0 mg/kg/injection, schedule: Q01DX009 (ip), vehicle: saline.
Setting [5] is: dose: 50.0 mg/kg/injection, schedule: Q01DX009 (ip), vehicle: saline.
[6] abbreviates: dose: 50.0 mg/kg/injection, schedule: Q01DX009 (ip), vehicle: Klucel (hydroxypropylcellulose) (HPC).
[7] abbreviates: dose: 100.0 mg/kg/injection, schedule: Q01DX009 (ip), vehicle: Klucel (hydroxypropylcellulose) (HPC).
Setting [8] is: dose: 100.0 mg/kg/injection, schedule: Q04DX003 (ip), vehicle: Klucel (hydroxypropylcellulose) (HPC).
Where [9] appears, read: dose: 200.0 mg/kg/injection, schedule: Q04DX003 (ip), vehicle: Klucel (hydroxypropylcellulose) (HPC).
Where [10] appears, read: dose: 100.0 mg/kg/injection, schedule: Q01DX001 (ip), vehicle: saline.
Setting [11] is: dose: 200.0 mg/kg/injection, schedule: Q01DX001 (ip), vehicle: saline.
Where [12] appears, read: dose: 400.0 mg/kg/injection, schedule: Q01DX001 (ip), vehicle: saline.
Setting [13] is: dose: 100.0 mg/kg/injection, schedule: Q01DX001 (ip), vehicle: carboxymethylcellulose (CMC).
The mark [14] stands for this setting: dose: 200.0 mg/kg/injection, schedule: Q01DX001 (ip), vehicle: carboxymethylcellulose (CMC).
Where [15] appears, read: dose: 200.0 mg/kg/injection, schedule: Q01DX009 (ip), vehicle: Klucel (hydroxypropylcellulose) (HPC).
[16] abbreviates: dose: 400.0 mg/kg/injection, schedule: Q01DX009 (ip), vehicle: Klucel (hydroxypropylcellulose) (HPC).
Setting [17] is: dose: 400.0 mg/kg/injection, schedule: Q04DX003 (ip), vehicle: Klucel (hydroxypropylcellulose) (HPC).

Inconclusive results and toxic doses are left out.

In the case of `CCOc1ncnc2c1nnn2C1OC(CO)C(O)C1O` (configuration not stated), the T/C by setting is: (dose: 12.5 mg/kg/injection, schedule: Q01DX001 (ip), vehicle: saline with Tween-80) 105 % of control; (dose: 25.0 mg/kg/injection, schedule: Q01DX001 (ip), vehicle: saline with Tween-80) 107 % of control; (dose: 50.0 mg/kg/injection, schedule: Q01DX001 (ip), vehicle: saline with Tween-80) 105 % of control; (dose: 100.0 mg/kg/injection, schedule: Q01DX001 (ip), vehicle: saline with Tween-80) 104 % of control; (dose: 200.0 mg/kg/injection, schedule: Q01DX001 (ip), vehicle: saline with Tween-80) 105 % of control; (dose: 400.0 mg/kg/injection, schedule: Q01DX001 (ip), vehicle: saline with Tween-80) 108 % of control.
Consider `O=NN(CCCl)C(=O)NC12CC3CC(CC(C3)C1)C2`, for which the T/C by setting is: (dose: 62.0 mg/kg/injection, schedule: Q01DX001 (ip), vehicle: carboxymethylcellulose (CMC)) 270 % of control; (dose: 93.0 mg/kg/injection, schedule: Q01DX001 (ip), vehicle: carboxymethylcellulose (CMC)) 250 % of control; (dose: 125.0 mg/kg/injection, schedule: Q01DX001 (ip), vehicle: carboxymethylcellulose (CMC)) 255 % of control; (dose: 187.0 mg/kg/injection, schedule: Q01DX001 (ip), vehicle: carboxymethylcellulose (CMC)) 182 % of control.
Regarding `NC(=O)C1(O)C(Cl)(Cl)CCCC1(Cl)Cl`, the T/C (dose: 50.0 mg/kg/injection, schedule: Q01DX009 (ip), vehicle: saline with Tween-80) is 102 % of control; the T/C under setting [1] is 91 % of control; the T/C under setting [2] was 106 % of control.
Regarding `C[Se]c1ncnc2c1c(C#N)cn2C1OC(CO)C(O)C1O` (configuration not stated), the T/C reads like this: (dose: 12.5 mg/kg/injection, schedule: Q01DX005 (ip), vehicle: saline) 123 % of control; under setting [3], 120 % of control; under setting [4], 124 % of control; (dose: 50.0 mg/kg/injection, schedule: Q01DX005 (ip), vehicle: saline) 120 % of control; under setting [5], 94 % of control.
With `Cc1cc([N+](=O)[O-])cc([N+](=O)[O-])c1Cl`, the T/C was 103 % of control under setting [6], 100 % of control under setting [7], 98 % of control under setting [8] and 103 % of control under setting [9].
As to `CN(C)C(=O)ON=C1c2ccccc2-c2ccccc21`, the T/C was 103 % of control under setting [10], 97 % of control under setting [11] and 103 % of control under setting [12].
In the case of `CNC(=O)C(C)(C)Br`, the T/C is, setting by setting: (dose: 100.0 mg/kg/injection, schedule: Q04DX003 (ip), vehicle: saline) 105 % of control; (dose: 200.0 mg/kg/injection, schedule: Q04DX003 (ip), vehicle: saline) 109 % of control; (dose: 400.0 mg/kg/injection, schedule: Q04DX003 (ip), vehicle: saline) 107 % of control.
As for `Cc1ncc(CCO)c2c1OC(C)(C)OC2`, the T/C is, setting by setting: under setting [13], 98 % of control; under setting [14], 110 % of control; (dose: 400.0 mg/kg/injection, schedule: Q01DX001 (ip), vehicle: carboxymethylcellulose (CMC)) 101 % of control.
`COc1ccc(/C=C/C(=O)c2ccc(OC)cc2)cc1`: the T/C is, setting by setting: under setting [7], 100 % of control; under setting [8], 102 % of control; under setting [15], 94 % of control; under setting [9], 98 % of control; under setting [16], 92 % of control; under setting [17], 101 % of control.
As for `NS(=O)(=O)c1cccc([N+](=O)[O-])c1`, the T/C runs as follows: (dose: 20.0 mg/kg/injection, schedule: Q04DX003 (ip), vehicle: Klucel (hydroxypropylcellulose) (HPC)) 104 % of control; (dose: 25.0 mg/kg/injection, schedule: Q01DX009 (ip), vehicle: Klucel (hydroxypropylcellulose) (HPC)) 107 % of control; (dose: 40.0 mg/kg/injection, schedule: Q04DX003 (ip), vehicle: Klucel (hydroxypropylcellulose) (HPC)) 98 % of control; under setting [6], 100 % of control; (dose: 80.0 mg/kg/injection, schedule: Q04DX003 (ip), vehicle: Klucel (hydroxypropylcellulose) (HPC)) 107 % of control; under setting [7], 96 % of control. For the same molecule, the T/C under setting [8] is 96 % of control.
As to `CCOC(=O)C(C(C)=O)C(c1ccc2c(c1)OCO2)C(C(C)=O)C(=O)O` (configuration not stated), the T/C reads like this: (dose: 25.6 mg/kg/injection, schedule: Q04DX002 (ip), vehicle: saline with Tween-80) 100 % of control; (dose: 64.0 mg/kg/injection, schedule: Q04DX002 (ip), vehicle: saline with Tween-80) 96 % of control; (dose: 160.0 mg/kg/injection, schedule: Q04DX002 (ip), vehicle: saline with Tween-80) 103 % of control; (dose: 400.0 mg/kg/injection, schedule: Q04DX002 (ip), vehicle: saline with Tween-80) 107 % of control.
Turning to `CSc1nn2c(SC)nnc2s1`, the T/C reads like this: (dose: 50.0 mg/kg/injection, schedule: Q01DX001 (ip), vehicle: carboxymethylcellulose (CMC)) 104 % of control; under setting [13], 101 % of control; under setting [14], 120 % of control.
As for `O=C(Nc1cccc(C(=O)O)c1)Nc1cccc(C(F)(F)F)c1`, the T/C was 86 % of control under setting [7] and 86 % of control under setting [15].
On to `CCN(CC)CCCOC(=O)/C=C/c1c(C)[nH]c(=O)[nH]c1=O`, for which the T/C is, setting by setting: (dose: 6.25 mg/kg/injection, schedule: Q01DX009 (ip), vehicle: saline) 106 % of control; under setting [3], 97 % of control; (dose: 12.5 mg/kg/injection, schedule: Q04DX003 (ip), vehicle: saline) 102 % of control; under setting [4], 96 % of control; (dose: 25.0 mg/kg/injection, schedule: Q04DX003 (ip), vehicle: saline) 103 % of control; under setting [5], 103 % of control. Also, the T/C (dose: 50.0 mg/kg/injection, schedule: Q04DX003 (ip), vehicle: saline) was 116 % of control.
Consider `O=C(O)COC(C[N+](=O)[O-])C(Cl)(Cl)Cl` (configuration not stated), for which the T/C was 95 % of control under setting [1]; 92 % of control under setting [2]; 88 % of control (dose: 400.0 mg/kg/injection, schedule: Q01DX009 (ip), vehicle: saline with Tween-80).
Turning to `CCCC#CC(=O)OCCCCCC`, the T/C by setting is: (dose: 100.0 mg/kg/injection, schedule: Q04DX002 (ip), vehicle: saline) 96 % of control; (dose: 200.0 mg/kg/injection, schedule: Q04DX002 (ip), vehicle: saline) 111 % of control; (dose: 400.0 mg/kg/injection, schedule: Q04DX002 (ip), vehicle: saline) 103 % of control.
For `c1ccc(C2C(c3ccccc3)N2C23CC4CC(CC(C4)C2)C3)cc1` (configuration not stated), the T/C runs as follows: under setting [8], 88 % of control; under setting [9], 94 % of control.
For `O=C1CCCCCCC12CCCCC2`, the T/C is, setting by setting: under setting [7], 88 % of control; under setting [8], 102 % of control; under setting [15], 98 % of control; under setting [9], 95 % of control; under setting [16], 98 % of control; under setting [17], 91 % of control.
For the molecule `CCCN1CCN(CCCO)CC1C` (configuration not stated), the T/C by setting is: under setting [10], 103 % of control; under setting [11], 105 % of control; under setting [12], 103 % of control.

Values taken from PubChem BioAssay AID248 (DTP/NCI, 2004).
